The assay has as its target T1, dihydrofolate reductase (DHFR) (Mus musculus, UniProt P00375).
T1 construct: endogenous in cells; host or cells: RAW264.7 cells (FR-positive subclone of ATCC TIB71)
T1 sequence (P00375 1-187): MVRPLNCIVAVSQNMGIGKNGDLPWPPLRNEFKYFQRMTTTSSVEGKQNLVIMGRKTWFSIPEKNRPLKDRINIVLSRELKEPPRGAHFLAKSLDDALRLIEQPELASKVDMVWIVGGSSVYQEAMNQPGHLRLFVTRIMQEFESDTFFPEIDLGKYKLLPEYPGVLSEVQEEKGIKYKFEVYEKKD
Put plainly: Dihydrofolate reductase inhibition assay in RAW264.7 whole cell lysates. The class given is cell-based, murine. Particulars: 100 nM plus 100-fold excess FA (10 μM), 2-hour pulse, 22-hour chase. Here is the method:
RAW264.7 cells growing in FFRPMI medium in 10 cm cell culture dishes (BD Falcon, Lincoln Park, NJ, USA) were treated with EC0746 (100 nM), EC0746 (100 nM) plus 100-fold molar excess of FA (10 μM), or FA alone (10 μM). After a 2-hour exposure, the drug-containing media were replaced and the cells were allowed to incubate further for 22 hours in fresh FFRPMI medium (referred in the text as a 22-hour chase). Meanwhile, AMT and MTX were kept at 100 nM for the entire 24-hour incubation period. All cells were subsequently lysed in the radioimmunoprecipitation assay lysis buffer, and DHFR activities in the whole cell lysates were determined using a commercial DHFR assay kit (Sigma-Aldrich). This spectrophotometric assay monitors the enzymatic conversion of dihydrofolic acid to tetrahydrofolic acid by DHFR and the disappearance of the co-factor nicotinamide adenine dinucleotide phosphate at 340 nm. The results were normalized to the values of the untreated control cells.

As to `Nc1nc(N)c2nc(CNc3ccc(C(=O)N[C@@H](CCC(=O)NNC(=O)OCCSSC[C@H](NC(=O)[C@H](CCC(=O)NC[C@H](O)[C@@H](O)[C@H](O)[C@H](O)CO)NC(=O)[C@H](CCC(=O)O)NC(=O)[C@H](CCC(=O)NC[C@H](O)[C@@H](O)[C@H](O)[C@H](O)CO)NC(=O)[C@H](CCC(=O)O)NC(=O)[C@H](CCC(=O)NC[C@H](O)[C@@H](O)[C@H](O)[C@H](O)CO)NC(=O)CC[C@H](NC(=O)c4ccc(NCc5cnc6nc(N)[nH]c(=O)c6n5)cc4)C(=O)O)C(=O)O)C(=O)O)cc3)cnc2n1` [EC0746], the “DHFR inhibitory activity with excess FA” value is listed as “blocked by excess FA”.
